The term Kd denotes the equilibrium constant for the complex coming apart.

This note sets out measurements from patent US11484607B2, “PSMA-targeted NIR dyes and their uses” (On Target Laboratories, LLC, priority 2015, dated 2022).

For one series, the target named is T1, PSMA (Homo sapiens, UniProt Q04609).
T1 construct: host or cells: 22Rv1 human prostate cancer cells
Briefly: Relative binding affinity of DUPA-NIR conjugates with respect to DUPA-FITC on 22Rv1 cells, flow cytometry. To be noted: for affinity for PSMA (in words): in vitro binding affinity data; for Kd: conjugates with aromatic linkers, 1 h at 37° C., 100 nM DUPA-FITC. The procedure:
FIG. 3—Relative binding affinities of DUPA-NIR conjugates 1-9 with respect to DUPA-FITC (14). PSMA-positive 22Rv1 human prostate cancer cells were incubated for 1 h at 37° C. in the presence of 100 nM DUPA-FITC with increasing concentrations of DUPA-NIR conjugates. […] Cell bound fluorescence was assayed as using flow cytometry.
FIG. 6—Relative binding affinities of DUPA-NIR conjugates with aromatic amino acids linkers with respect to DUPA-FITC (14). PSMA-positive 22Rv1 human prostate cancer cells were incubated for 1 h at 37° C. in the presence of 100 nM DUPA-FITC with increasing concentrations of DUPA-NIR conjugates. […] Cell bound fluorescence was assayed as using flow cytometry.
FIG. 3 Relative binding affinities of DUPA-NIR conjugates 1-9 with respect to DUPA-FITC (14). PSMA-positive 22Rv1 human prostate cancer cells were incubated for 1 h at 37° C. in the presence of 100 nM DUPA-FITC with increasing concentrations of DUPA-NIR conjugates. […] Cell bound fluorescence was assayed as using flow cytometry.
in vitro studies. […] PSMA-positive 22Rv1 human prostate cancer cells were incubated for 1 h at 37° C. in the presence of 100 nM DUPA-FITC with increasing concentrations of DUPA-NIR conjugates. […] Cell bound fluorescence was assayed as using flow cytometry.
PSMA-positive 22Rv1 human prostate cancer cells were incubated for 1 h at 37° C. in the presence of 100 nM DUPA-FITC with increasing concentrations of DUPA-NIR conjugates. […] Cell bound fluorescence was assayed as using flow cytometry.
FIG. 24: Relative binding affinities of DUPA-NIR conjugates with respect to DUPA-FITC (14). PSMA-positive 22Rv1 human prostate cancer cells were incubated for 1 h at 37° C. in the presence of 100 nM DUPA-FITC with increasing concentrations of DUPA-NIR conjugates. […] Cell bound fluorescence was assayed as using flow cytometry.
PSMA-positive 22Rv1 human prostate cancer cells were incubated for 1 h at 37° C. in the presence of 100 nM DUPA-FITC with increasing concentrations of DUPA-NIR conjugates. […] Cell bound fluorescence was assayed as using flow cytometry
Cancer cells were incubated for 1 h at 37° C. in the presence of 100 nM DUPA-FITC with increasing concentrations of compound 15. […] Cell bound fluorescence was assayed as using flow cytometry.
(In general: In flow cytometry, cells or beads pass a laser one at a time.)

Series [1] deals with human prostate tumor xenografts (22Rv1 cells). Briefly: Tissue biodistribution and tumor-to-tissue fluorescence ratio of DUPA-NIR conjugates, IVIS imaging. Type of series: in vivo, mice. Particulars: 2 h after tail vein injection. As for the experimental part:
In vivo studies. More specifically, biodistribution of DUPA-NIR conjugates 1-9 was monitored using fluorescence imaging of mice bearing human prostate tumor xenografts (22Rv1 cells). Male nude mice with 22Rv1 tumor xenografts were injected with DUPA-NIR dye conjugates via tail vein. The mice were euthanized 2 h after administration of the DUPA-NIR dye conjugate, selected tissues were harvested, and tissues were imaged with IVIS imager (ex=745 nm, em=ICG, exposure time=1 s).
The conjugates were also tested to show the ratio of tumor-to-tissue fluorescence. […] After imaging, fluorescence within a Region of interest (ROI) was measured for each tissue using In Vivo imaging software and tumor-to-tissue fluorescence was then calculated
in vivo studies. […] Male nude mice with 22Rv1 tumor xenografts were injected with DUPA-NIR dye conjugates via tail vein. The mice were euthanized 2 h after administration of the DUPA-NIR dye conjugate, selected tissues were harvested, and tissues were imaged with IVIS imager (ex=745 nm, em=ICG, exposure time=1 s). After imaging, fluorescence within a Region of interest (ROI) was measured for each tissue using In Vivo imaging software and tumor-to-tissue fluorescence was then calculated.
Male nude mice with 22Rv1 tumor xenografts were injected with DUPA-NIR dye conjugates via tail vein. The mice were euthanized 2 h after administration of the DUPA-NIR dye conjugate, selected tissues were harvested, and tissues were imaged with IVIS imager (ex=745 nm, em=ICG, exposure time=1 s). After imaging, fluorescence within a Region of interest (ROI) was measured for each tissue using In Vivo imaging software and tumor-to-tissue fluorescence was then calculated.
In vivo studies. […] Male nude mice with 22Rv1 tumor xenografts were injected with DUPA-NIR dye conjugates via tail vein. The mice were euthanized 2 h after administration of the DUPA-NIR dye conjugate, selected tissues were harvested, and tissues were imaged with IVIS imager (ex=745 nm, em=ICG, exposure time=1 s). After imaging, fluorescence within a Region of interest (ROI) was measured for each tissue using In Vivo imaging software and tumor-to-tissue fluorescence was then calculated.

The test system of series [2] is 22Rv1 human prostate tumor xenograft. Briefly: Time dependent whole-body fluorescence imaging of DUPA-NIR conjugates, IVIS imager. Type of series: in vivo, mouse. To be noted: for whole-body imaging: 6 or 20 nmol, imaged at different time intervals. As for the experimental part: 22Rv1 human prostate tumor xenograft bearing mouse was injected with 20 nmol of 15 and imaged with IVIS imager (ex=745 nm, em=ICG, exposure time=1 s) at different time intervals.
22Rv1 human prostate tumor xenograft bearing mouse was injected with 20 nmol of 23 and imaged with IVIS imager (ex=745 nm, em=ICG, exposure time=1 s) at different time intervals.
22Rv1 human prostate tumor xenograft bearing mouse was injected with 20 nmol of 25 and imaged with IVIS imager (ex=745 nm, em=ICG, exposure time=1 s) at different time intervals
22Rv1 human prostate tumor xenograft bearing mouse was injected with 6 nmol of 35 and imaged with IVIS imager (ex=745 nm, em=ICG, exposure time=1 s) at different time intervals.
22Rv1 human prostate tumor xenograft bearing mouse was injected with 6 nmol of 36 and imaged with IVIS imager (ex=745 nm, em=ICG, exposure time=1 s) at different time intervals.
22Rv1 human prostate tumor xenograft bearing mouse was injected with 20 nmol of 39 and imaged with IVIS imager (ex=745 nm, em=ICG, exposure time=1 s) at different time intervals.
22Rv1 human prostate tumor xenograft bearing mouse was injected with 20 nmol of 40 and imaged with IVIS imager (ex=745 nm, em=ICG, exposure time=1 s) at different time intervals.
22Rv1 human prostate tumor xenograft bearing mouse was injected with 20 nmol of 41 and imaged with IVIS imager (ex=745 nm, em=ICG, exposure time=1 s) at different time intervals.
FIG. 25: Overlay of whole body or half body fluorescence image over white light images after adjusting the threshold. 22Rv1 human prostate tumor xenograft bearing mouse was injected with 20 nmol of 54 and imaged with IVIS imager (ex=745 nm, em=ICG, exposure time=1 s) at different time intervals.
22Rv1 human prostate tumor xenograft bearing mouse was injected with 20 nmol of 55 and imaged with IVIS imager (ex=745 nm, em=ICG, exposure time=1 s) at different time intervals.
22Rv1 human prostate tumor xenograft bearing mouse was injected with 20 nmol of 56 and imaged with IVIS imager (ex=745 nm, em=ICG, exposure time=1 s) at different time intervals.
22Rv1 human prostate tumor xenograft bearing mouse was injected with 20 nmol of 57 and imaged with IVIS imager (ex=745 nm, em=ICG, exposure time=1 s) at different time intervals
22Rv1 human prostate tumor xenograft bearing mouse was injected with 20 nmol of 58 and imaged with IVIS imager (ex=745 nm, em=ICG, exposure time=1 s) at different time intervals
22Rv1 human prostate tumor xenograft bearing mouse was injected with 20 nmol of 60 and imaged with IVIS imager (ex=745 nm, em=ICG, exposure time=1 s) at different time intervals.
in vivo studies. […] 22Rv1 human prostate tumor xenograft bearing mouse was injected with 20 nmol of 63 and imaged with IVIS imager (ex=745 nm, em=ICG, exposure time=1 s) at different time intervals.
22Rv1 human prostate tumor xenograft bearing mouse was injected with 6 nmol of 63 and imaged with IVIS imager (ex=745 nm, em=ICG, exposure time=1 s) at different time intervals.
22Rv1 human prostate tumor xenograft bearing mouse was injected with 20 nmol of 64 and imaged with IVIS imager (ex=745 nm, em=ICG, exposure time=1 s) at different time intervals.
22Rv1 human prostate tumor xenograft bearing mouse was injected with 6 nmol of 15 and imaged with IVIS imager (ex=745 nm, em=ICG, exposure time=1 s) at different time intervals.

Series [3] in a line: Concentration dependent UV spectrometric study of higher order aggregates. Type of series: physicochemical. The procedure:
Possible OTL78-related hypersensitivity in human was next examined using basophil activation assay. Drug related hypersensitivity is mainly due to immune response caused by cross-linking of immunoglobulin E (IgE) expressed on mast cells and basophils (FIG. 47D) resulting in activation and subsequent degranulation to release vasoactive amines, prostaglandins, and cytokines (29). Since cross-linking of IgE can be due to aggregates, concentration dependent UV spectrometric studies were conducted to determine higher order aggregates of OTL78.

T1 sequence (Q04609 whole entry): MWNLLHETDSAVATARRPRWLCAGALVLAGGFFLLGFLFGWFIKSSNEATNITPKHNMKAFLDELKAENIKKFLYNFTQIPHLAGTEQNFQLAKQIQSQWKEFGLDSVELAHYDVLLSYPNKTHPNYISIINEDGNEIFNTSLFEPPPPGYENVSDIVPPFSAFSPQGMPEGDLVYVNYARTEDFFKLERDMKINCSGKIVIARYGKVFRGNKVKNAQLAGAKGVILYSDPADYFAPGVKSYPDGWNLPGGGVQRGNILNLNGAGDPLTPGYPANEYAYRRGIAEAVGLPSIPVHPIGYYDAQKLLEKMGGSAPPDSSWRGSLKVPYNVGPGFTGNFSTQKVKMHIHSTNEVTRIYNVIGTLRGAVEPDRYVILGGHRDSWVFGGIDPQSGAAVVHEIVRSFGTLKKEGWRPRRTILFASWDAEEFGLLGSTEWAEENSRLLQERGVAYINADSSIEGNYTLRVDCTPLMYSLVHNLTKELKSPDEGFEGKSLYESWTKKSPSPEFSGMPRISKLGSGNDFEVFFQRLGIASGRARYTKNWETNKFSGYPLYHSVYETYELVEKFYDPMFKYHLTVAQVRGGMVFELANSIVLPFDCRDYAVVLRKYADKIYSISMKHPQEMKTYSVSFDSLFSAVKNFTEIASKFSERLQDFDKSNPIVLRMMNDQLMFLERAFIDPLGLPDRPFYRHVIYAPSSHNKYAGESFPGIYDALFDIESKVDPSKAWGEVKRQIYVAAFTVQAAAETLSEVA

With `CC1(C)C(/C=C/C2=C(Oc3ccc(C[C@H](NC(=O)[C@H](Cc4ccccc4)NC(=O)CCCCCCCNC(=O)CC[C@H](NC(=O)N[C@@H](CCC(=O)O)C(=O)O)C(=O)O)C(=O)O)cc3)C(=C/C=C3/N(CCCCS(=O)(=O)O)c4ccc(S(=O)(=O)O)cc4C3(C)C)/CCC2)=[N+](CCCCS(=O)(=O)[O-])c2ccc(S(=O)(=O)O)cc21` [Compound 15], the “affinity for PSMA (in words)” value on PSMA is “very high affinity”. The “tumor-to-background ratio (TBR), in words” value in series [1] is recorded as “excellent”. The “sites of accumulation in whole-body imaging” value in series [2] (6 nmol, time dependent) was “accumulated in PSMA-positive tumors and kidneys”. Besides, in series [2], the whole-body imaging entry is reported as “very good whole-body imaging data within 2-4 hours”.
For the compound `CC1(C)C(/C=C/C2=C(Oc3ccc(C[C@H](NC(=O)[C@H](Cc4ccccc4)NC(=O)[C@H](Cc4ccccc4)NC(=O)CCCCCCCNC(=O)CC[C@H](NC(=O)N[C@@H](CCC(=O)O)C(=O)O)C(=O)O)C(=O)O)cc3)C(=C/C=C3/N(CCCCS(=O)(=O)O)c4ccc(S(=O)(=O)O)cc4C3(C)C)/CCC2)=[N+](CCCCS(=O)(=O)[O-])c2ccc(S(=O)(=O)O)cc21` [Compound 23], at PSMA, the Kd was found to be 7.5 nM and the “affinity for PSMA (in words)” value is “very high affinity”. Besides, the whole-body imaging entry in series [2] is “very good whole-body imaging data within 2-4 hours”.
Take `CC1(C)C(/C=C/C2=C(SC[C@H](NC(=O)[C@H](Cc3ccccc3)NC(=O)CCCCCCCNC(=O)CC[C@H](NC(=O)N[C@@H](CCC(=O)O)C(=O)O)C(=O)O)C(=O)O)C(=C/C=C3/N(CCCCS(=O)(=O)O)c4ccc(S(=O)(=O)O)cc4C3(C)C)/CCC2)=[N+](CCCCS(=O)(=O)[O-])c2ccc(S(=O)(=O)O)cc21` [Compound 25]: on PSMA, the Kd is 6.3 nM and the “affinity for PSMA (in words)” value is recorded as “very high affinity”. For the same compound, the whole-body imaging entry in series [2] is “very good whole-body imaging data within 2-4 hours”.
For `CC1(C)C(/C=C/C2=C(Oc3ccc(C[C@H](NC(=O)[C@H](Cc4ccccc4)NC(=O)CCOCCOCCNC(=O)CC[C@H](NC(=O)N[C@@H](CCC(=O)O)C(=O)O)C(=O)O)C(=O)O)cc3)C(=C/C=C3/N(CCCCS(=O)(=O)O)c4ccc(S(=O)(=O)O)cc4C3(C)C)/CCC2)=[N+](CCCCS(=O)(=O)[O-])c2ccc(S(=O)(=O)O)cc21` [Compound 35], binding at PSMA was characterised by a dissociation constant (Kd) of 23.9 nM. In addition, in series [1], the “tumor-to-background ratio (TBR), in words” value is on record as “excellent”. Moreover, the whole-body imaging entry in series [2] is on record as “very good whole-body imaging data within 2-4 hours”.
Regarding `CC1(C)C(/C=C/C2=C(Oc3ccc(C[C@H](NC(=O)[C@](C)(Cc4ccc(F)cc4)NC(=O)CCOCCOCCNC(=O)CC[C@H](NC(=O)N[C@@H](CCC(=O)O)C(=O)O)C(=O)O)C(=O)O)cc3)C(=C/C=C3/N(CCCCS(=O)(=O)O)c4ccc(S(=O)(=O)O)cc4C3(C)C)/CCC2)=[N+](CCCCS(=O)(=O)[O-])c2ccc(S(=O)(=O)O)cc21` [Compound 36], the “affinity for PSMA (in words)” value at PSMA is given as “very high affinity”. In addition, the whole-body imaging result in series [2] was “very good whole-body imaging data within 2-4 hours”.
Take `CC1(C)C(/C=C/C2=C(Oc3ccc(C[C@H](NC(=O)[C@H](CCCNC(=N)N)NC(=O)[C@H](Cc4ccccc4)NC(=O)CCCCCCCNC(=O)CC[C@H](NC(=O)N[C@@H](CCC(=O)O)C(=O)O)C(=O)O)C(=O)O)cc3)C(=C/C=C3/N(CCCCS(=O)(=O)O)c4ccc(S(=O)(=O)O)cc4C3(C)C)/CCC2)=[N+](CCCCS(=O)(=O)[O-])c2ccc(S(=O)(=O)O)cc21` [Compound 41]: the “affinity for PSMA (in words)” value on PSMA is listed as “very high affinity”. For the same compound, in series [2], the whole-body imaging result is on record as “very good whole-body imaging”.
Consider OTL38 [reference compound], for which the higher aggregates in series [3] (75 μM concentration in saline) is over 50%. Besides, the “higher order aggregates (UV spectra), in words” value in series [3] (75 μM in saline) is on record as “concentration dependent aggregation peak”.
